Counter-ions that a name gives are not always drawn.
Experiments:
[1] = system: red blood cells collected from SCD homo mice; experiment: Sickling by hypoxia exposure of cultured red blood cells collected from SCD homo mice; assay type: cell-based, mouse; conditions: then 4% O2 for 1.5 hours
Description: SCD model mice aged 8 to 20 weeks were used. In the mice, a human HBA gene and a human HBB gene are knocked in a mouse HBA gene locus and a mouse HBB gene locus, respectively, and a gene mutation (β^s mutation) causing amino acid substitution (Val6Glu) causing SCD is introduced into the human HBB gene. Furthermore, a human HBG gene is introduced, and expression switching from post-natal γ-globin to β-globin is designed to occur as in humans. […] The SCD homo mouse was anesthetized with isoflurane, and 100 μl of blood was then collected from the vein behind the jawbone into an EDTA-2Na-coated blood sampling tube using an animal lamp set. The coagulation of the blood was prevented by lightly tapping the tube. The collected blood was transferred to a 1.5 ml tube, and centrifuged for 10 minutes under conditions of 3000 rpm and 4° C. After removing the supernatant, 1 ml of PBS was added to the precipitated red blood cells, followed by mixing by inversion, to wash the cells. The red blood cells obtained by repeating this washing operation again were diluted 200 times with a cell culture solution (RPMI 1640, 10% FBS, 1% Penicillin-Streptomycin-Fungizone Cocktail), and cultured under the conditions of 37° C., 5% CO2, and 21% O2. This red blood cell culture solution was used in the experiment within 5 days from the start of culture. […]

SCD homo mice = conditions: normal oxygen concentration; 4 weeks; 5-ALA hydrochloride 50 mg/kg/day and/or SFC 3.9 mg/kg/day; vs physiological saline (FIG. 10); combination P<0.05
Description: All the prepared smear specimens were stained with May-Giemsa in the same manner as in Example 2, and the ratio of sickle cells to all red blood cells was measured. The rate of the sickle cells of the groups were compared with each other to examine the effect of the combination of 5-ALA hydrochloride and SFC on the rate of the in vivo sickle cells.

SCD homo mouse = experiment: Bleeding stress due to blood sampling in SCD model mice (blood LDH level); assay type: in vivo; conditions: 50/3.9 mg/kg single administration after first blood sampling, blood sampling 2 after 3 hours, vs physiological saline
Description: Using the LDH levels in blood in the SCD model mice as an index, the effect of 5-ALA hydrochloride on bleeding stress due to blood sampling in the SCD patients was examined.
The LDH levels in the blood collected before and after the administration were measured, and the effect of the combination of 5-ALA hydrochloride and SFC on bleeding stress due to blood sampling was evaluated.

Molecule | red blood cells exhibiting a sickle form ([1]; 50 μM for 4 hours, SCD homo mouse No. 72, vs 0 μM (FIG. 1)) | sickling rate ([1]; 10, 25 and 50 μM for 4 hours, vs 0 μM (FIG. 2)) | rate of the in vivo sickle cells (SCD homo mice) | increase in the LDH level in blood after blood sampling (SCD homo mouse)
NCC(=O)CCC(=O)O [5-ALA hydrochloride, 5-aminolevulinic acid] | remarkable decrease | concentration-dependent decrease | slightly decreases | markedly suppressed
sodium ferrous citrate [SFC] |  |  | little effect | 
